Several values for one entry are separate records, joined by “and”; a condition that tells them apart may be missing. Equal values may be shown once. Toxic doses and inconclusive results are not listed.

For the assay, the system named is P388 leukemia ip, CD2F1 mice, survival T/C. The experiment in a line: NCI In Vivo Anticancer Drug Screen. Data for tumor model P388 Leukemia (intraperitoneal) in CD2F1 (CDF1) mice. Conditions: endpoint: median survival time, higher = longer survival. The procedure, abridged:
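Mice carrying the transplanted tumor received test compound or vehicle. Survival was recorded in each group, and the value is the treated-group measurement divided by that of the vehicle-treated control group.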

[1] abbreviates: dose: 12.5 mg/kg/injection, schedule: Q01DX005 (ip), vehicle: Klucel (hydroxypropylcellulose) (HPC).
Where [2] appears, read: dose: 25.0 mg/kg/injection, schedule: Q01DX005 (ip), vehicle: Klucel (hydroxypropylcellulose) (HPC).
The mark [3] stands for this setting: dose: 50.0 mg/kg/injection, schedule: Q01DX005 (ip), vehicle: Klucel (hydroxypropylcellulose) (HPC).
Setting [4] is: dose: 25.0 mg/kg/injection, schedule: Q01DX009 (ip), vehicle: Klucel (hydroxypropylcellulose) (HPC).
The mark [5] stands for this setting: dose: 50.0 mg/kg/injection, schedule: Q01DX009 (ip), vehicle: Klucel (hydroxypropylcellulose) (HPC).
The mark [6] stands for this setting: dose: 100.0 mg/kg/injection, schedule: Q01DX001 (ip), vehicle: saline with Tween-80.
Setting [7] is: dose: 50.0 mg/kg/injection, schedule: Q01DX005 (ip), vehicle: saline with Tween-80.
[8] abbreviates: dose: 100.0 mg/kg/injection, schedule: Q01DX005 (ip), vehicle: saline with Tween-80.

For the compound `CCN(CC)CCCNc1nccc2c(C)c3[nH]c4ccncc4c3cc12`, the T/C (dose: 0.5 mg/kg/injection, schedule: Q04DX003 (ip), vehicle: other) was 162 % of control; the T/C (dose: 0.5 mg/kg/injection, schedule: Q04DX003 (iv), vehicle: other) was 110 % of control; the T/C (dose: 0.58 mg/kg/injection, schedule: Q04DX003 (ip), vehicle: other) is 155 % of control; the T/C (dose: 0.97 mg/kg/injection, schedule: Q04DX003 (ip), vehicle: other) was 156 % of control; the T/C (dose: 1.0 mg/kg/injection, schedule: Q04DX003 (iv), vehicle: other) was 110 % of control; the T/C (dose: 1.62 mg/kg/injection, schedule: Q04DX003 (ip), vehicle: other) is 182 % of control. Further, the T/C (dose: 2.0 mg/kg/injection, schedule: Q04DX003 (iv), vehicle: other) was 112 % of control; the T/C (dose: 2.7 mg/kg/injection, schedule: Q04DX003 (ip), vehicle: other) was 189 % of control; the T/C (dose: 3.24 mg/kg/injection, schedule: Q04DX002 (ip), vehicle: other) was 170 % of control and 175 % of control; the T/C (dose: 3.89 mg/kg/injection, schedule: Q04DX002 (ip), vehicle: other) is 179 % of control; the T/C (dose: 4.0 mg/kg/injection, schedule: Q04DX003 (iv), vehicle: other) was 122 % of control; the T/C (dose: 4.5 mg/kg/injection, schedule: Q04DX003 (ip), vehicle: other) was 196 % of control. For the same compound, the T/C was 168 % of control and 185 % of control (dose: 5.4 mg/kg/injection, schedule: Q04DX002 (ip), vehicle: other); 213 % of control (dose: 6.48 mg/kg/injection, schedule: Q04DX002 (ip), vehicle: other); 182 % of control (dose: 7.5 mg/kg/injection, schedule: Q04DX003 (ip), vehicle: other); 200 % of control and 207 % of control (dose: 9.0 mg/kg/injection, schedule: Q04DX002 (ip), vehicle: other); 194 % of control (dose: 10.8 mg/kg/injection, schedule: Q04DX002 (ip), vehicle: other); 200 % of control and 217 % of control (dose: 15.0 mg/kg/injection, schedule: Q04DX002 (ip), vehicle: other). The T/C (dose: 18.0 mg/kg/injection, schedule: Q04DX002 (ip), vehicle: other) was 215 % of control.
Turning to `O=C(c1ccc(C(=O)N2CC2)cc1)N1CC1`, the T/C was 118 % of control (dose: 10.0 mg/kg/injection, schedule: Q04DX003 (ip), vehicle: saline with Tween-80) and 109 % of control (dose: 20.0 mg/kg/injection, schedule: Q04DX003 (ip), vehicle: saline with Tween-80).
On to `FC(F)(F)c1ccccc1NC(=S)SCc1ccco1`, for which the T/C was 93 % of control (dose: 50.0 mg/kg/injection, schedule: Q01DX009 (ip), vehicle: suspension in saline) and 93 % of control (dose: 100.0 mg/kg/injection, schedule: Q01DX009 (ip), vehicle: suspension in saline).
Take `BrC1c2ccccc2-c2nc3ccccc3nc21` (configuration not stated): the T/C reads like this: under setting [1], 112 % of control; under setting [2], 99 % of control; under setting [3], 103 % of control and 115 % of control.
As for `Cc1cc(NCCCCNCCCNc2cc(C)nc3cc([N+](=O)[O-])ccc23)c2ccc([N+](=O)[O-])cc2n1`, the T/C (dose: 12.5 mg/kg/injection, schedule: Q01DX009 (ip), vehicle: other) is 150 % of control.
Take `O=NN(CCCl)C(=O)OCCCSSCCCOC(=O)N(CCCl)N=O`: the T/C (dose: 50.0 mg/kg/injection, schedule: Q01DX009 (ip), vehicle: water) is 120 % of control.
For `Cc1nc(C)c(Cl)c(OS(=O)(=O)CCCCl)c1Cl`, the T/C was 110 % of control (2×) and 92 % of control under setting [4]; 110 % of control and 95 % of control (dose: 35.0 mg/kg/injection, schedule: Q01DX009 (ip), vehicle: Klucel (hydroxypropylcellulose) (HPC)); 105 % of control and 120 % of control and 95 % of control under setting [5]; 94 % of control (dose: 75.0 mg/kg/injection, schedule: Q01DX009 (ip), vehicle: Klucel (hydroxypropylcellulose) (HPC)).
As for `CCCCCCCCNC1c2ccccc2CCC1O` (configuration not stated), the T/C is, setting by setting: under setting [2], 97 % of control; under setting [3], 94 % of control; (dose: 100.0 mg/kg/injection, schedule: Q01DX005 (ip), vehicle: Klucel (hydroxypropylcellulose) (HPC)) 97 % of control.
Regarding `O=C(CCCCCCCCC(=O)Nc1ccccc1)Nc1ccccc1`, the T/C was 103 % of control (dose: 50.0 mg/kg/injection, schedule: Q01DX001 (ip), vehicle: saline with Tween-80); 103 % of control under setting [6]; 100 % of control (dose: 200.0 mg/kg/injection, schedule: Q01DX001 (ip), vehicle: saline with Tween-80); 108 % of control (dose: 400.0 mg/kg/injection, schedule: Q01DX001 (ip), vehicle: saline with Tween-80).
As to `O=C(O)CC1Sc2ccccc2NC1=O` (configuration not stated), the T/C is 100 % of control under setting [5]; 108 % of control (dose: 100.0 mg/kg/injection, schedule: Q01DX009 (ip), vehicle: Klucel (hydroxypropylcellulose) (HPC)); 108 % of control (dose: 200.0 mg/kg/injection, schedule: Q01DX009 (ip), vehicle: Klucel (hydroxypropylcellulose) (HPC)); 100 % of control (dose: 400.0 mg/kg/injection, schedule: Q01DX009 (ip), vehicle: Klucel (hydroxypropylcellulose) (HPC)).
`CCCCCCCCCCCCCC[N+]1([O-])CCOCC1`: the T/C reads like this: (dose: 25.0 mg/kg/injection, schedule: Q04DX002 (ip), vehicle: saline) 104 % of control; (dose: 50.0 mg/kg/injection, schedule: Q04DX002 (ip), vehicle: saline) 104 % of control; (dose: 100.0 mg/kg/injection, schedule: Q04DX002 (ip), vehicle: saline) 104 % of control and 94 % of control.
Take `CC(=O)OC1CCC2(C)CCC3C(OC(=O)C3(C)[Se]c3ccccc3)C2C1C` (configuration not stated): where the note is “dose: 100.0 mg/kg/injection, schedule: Q04DX002 (ip), vehicle: saline with Tween-80”, the T/C is 91 % of control.
On to `N#Cc1nnn2c1nc(N)c1c(Cl)cccc12`, for which the T/C (dose: 60.0 mg/kg/injection, schedule: Q01DX005 (ip), vehicle: saline with Tween-80) is 98 % of control; the T/C (dose: 120.0 mg/kg/injection, schedule: Q01DX005 (ip), vehicle: saline with Tween-80) was 100 % of control; the T/C (dose: 240.0 mg/kg/injection, schedule: Q01DX005 (ip), vehicle: saline with Tween-80) is 100 % of control.
`Cc1cc(C)[n+]2n1C(=O)C(c1ccccc1)=C2[O-]`: the T/C is 101 % of control (dose: 50.0 mg/kg/injection, schedule: Q01DX005 (ip), vehicle: Klucel + Tween-80); 102 % of control (dose: 100.0 mg/kg/injection, schedule: Q01DX005 (ip), vehicle: Klucel + Tween-80); 101 % of control (dose: 200.0 mg/kg/injection, schedule: Q01DX005 (ip), vehicle: Klucel + Tween-80).
`S=c1n(-c2ccc(Cl)cc2)c2nc3ccccc3nc(/c2=N\Nc2cc(Cl)ccc2Cl)n1-c1ccccn1`: the T/C under setting [7] was 103 % of control and the T/C under setting [8] was 100 % of control.
As for `O=C(O)/C=C/c1ccc([N+](=O)[O-])o1`, the T/C is 107 % of control and 117 % of control under setting [4]; 120 % of control under setting [5].
Take `CN(C)C(C#CCO)c1ccccc1` (configuration not stated): the T/C is 100 % of control (dose: 60.0 mg/kg/injection, schedule: Q01DX005 (ip), vehicle: saline); 103 % of control (dose: 120.0 mg/kg/injection, schedule: Q01DX005 (ip), vehicle: saline); 101 % of control (dose: 240.0 mg/kg/injection, schedule: Q01DX005 (ip), vehicle: saline).
Turning to `O=C1NC(=O)/C(=C\c2ccccc2)C2=C1CCCC2`, the T/C was 103 % of control under setting [1], 103 % of control under setting [2] and 108 % of control under setting [3].
In the case of `CCc1ncc(C(C)(O)c2ccc(C)cc2)n1Cc1ccccc1` (configuration not stated), the T/C (dose: 60.0 mg/kg/injection, schedule: Q01DX005 (ip), vehicle: Klucel (hydroxypropylcellulose) (HPC)) is 90 % of control; the T/C (dose: 120.0 mg/kg/injection, schedule: Q01DX005 (ip), vehicle: Klucel (hydroxypropylcellulose) (HPC)) is 86 % of control; the T/C (dose: 240.0 mg/kg/injection, schedule: Q01DX005 (ip), vehicle: Klucel (hydroxypropylcellulose) (HPC)) is 86 % of control.
In the case of `NC(CS(=O)Cc1ccccc1)C(=O)O` (configuration not stated), the T/C under setting [7] was 95 % of control and the T/C under setting [8] is 102 % of control.
For `NSc1ccccn1`, the T/C (dose: 25.0 mg/kg/injection, schedule: Q01DX001 (ip), vehicle: Klucel (hydroxypropylcellulose) (HPC)) is 96 % of control; the T/C (dose: 50.0 mg/kg/injection, schedule: Q01DX001 (ip), vehicle: Klucel (hydroxypropylcellulose) (HPC)) is 96 % of control; the T/C (dose: 100.0 mg/kg/injection, schedule: Q01DX001 (ip), vehicle: Klucel (hydroxypropylcellulose) (HPC)) was 97 % of control; the T/C under setting [6] was 102 % of control.

The values above are taken from PubChem BioAssay AID330 (DTP/NCI, 2004).
